According to patent publication US20090312277A1, “Compositions And Methods For Reversing Or Preventing Resistance Of A Cancer Cell To A Cytotoxic Agent” (priority 2004, published 2009):
Peptide text beside a SMILES is read from it. * marks the point of attachment. Cbz = O=C(OCc1ccccc1)*; CHN2 = [N-]=[N+]=C*; tBu = CC(C)(C)*

Key:
[1] = test system: p21/WAF1; experiment: Western blot of p21/WAF1 in SKN-SH/R cells; assay type: cell-based, human; settings: 24 hours
Description: (§1) Doxorubicin resistant human neuroblastoma cells (SKN-SH/R) were subjected, in 25 cm^2 flasks, to treatment with a cathepsin L inhibitor and doxorubicin each, alone or in combination. After 24 hours of incubation, culture medium was removed and the cells washed twice with PBS. Proteins were solubilized with 150 μl of lysis buffer (50 mM HEPES pH 7.4, 150 mM NaCl, 100 mM NaF, 1 mM MgCl2, 1.5 mM EGTA, 10% glycerol, 1% Triton X100, 1 μg/ml leupeptin, 1 mM phenyl-methyl-sulfonyl-fluoride). Equal quantities of protein were separated by electrophoresis on a 12% SDS-PAGE gel and transferred to Immobilon-P membranes (Millipore, Bedford, Mass.). P21/WAF1 and cleaved (active) caspase-3 were detected by reaction with specific primary antibodies (P21/WAF1 primary antibody from Santa Cruz Biotechnologies, Santa Cruz, Calif.; and caspase-3 primary antibody from Cell Signaling Technology, Inc., Beverly, Mass.) after one hour of incubation at room temperature in PBS (pH7.4). This was followed by incubation of the membrane for 1 hour at room temperature with presence of secondary anti-Rabbit antibody linked to horseradish peroxidase (Bio-Rad Laboratories, Hercules, Calif.) (1/1000 in PBS). Reactive bands were detected by chemiluminescence.

[2] = target: T1, Purified cathepsin L (Homo sapiens, UniProt P07711); experiment: Cathepsin L activity, fluorogenic substrate (CV-Cathepsin L Detection Kit); assay type: biochemical; settings: inhibitor 10 μM, 200 ng cathepsin L; positive control 4e+5 AU, negative control 0.75e+5 AU
T1 construct: purchased Biomol, Plymouth Meeting, Pa
T1 sequence (P07711 114-333, species assumed): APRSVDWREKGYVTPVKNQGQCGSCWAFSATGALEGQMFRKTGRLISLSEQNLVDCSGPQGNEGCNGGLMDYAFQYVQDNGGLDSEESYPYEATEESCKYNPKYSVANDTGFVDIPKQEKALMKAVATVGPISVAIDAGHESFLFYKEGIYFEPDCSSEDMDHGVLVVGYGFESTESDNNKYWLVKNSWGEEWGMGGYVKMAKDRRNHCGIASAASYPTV
Description: Cathepsin L activity was measured using a commercially available kit according to the manufacturer's procedure (CV-Cathepsin L Detection Kit; Biomol, Plymouth Meeting, Pa.). Purified cathepsin L (Biomol, Plymouth Meeting, Pa.) (200 ng) was incubated with each inhibitor (10 μM) in a 96 well plate for 15 min at room temperature in 100 μl of reaction buffer (100 mM sodium acetate pH 5, 1 mM EDTA (ethylenediaminetetraacetic acid), and 4 mM dithiothreitol). The protease inhibitors tested were: lactacystin and inhibitors of cathepsin L, B, S, and K. 100 μl of a fluorogenic substrate (CV-Cathepsin L Detection Kit; Biomol, Plymouth Meeting, Pa.) were added and incubated for an additional 30 min at room temperature. Fluorescence was measured in a plate reader (Victor Multilabel Counter, Perkin Elmer) at 380 nm excitation and […] emission wavelengths.

[3] = test system: caspase-3; experiment: Western blot of cleaved (active) caspase-3 in SKN-SH/R cells; assay type: cell-based, human; settings: cathepsin L inhibitor 10 μM + doxorubicin 10^−6M, 24 hours
Description: as §1

[4] = test system: drug resistant osteosarcoma cells (Saos2-R); experiment: Cell count of drug resistant osteosarcoma cells after siRNA or inhibitor and doxorubicin; assay type: cell-based; settings: doxorubicin 10^−5 M for 48 hours, untreated 1.6e+6 AU
From the text: The human cathepsin L siRNA was designed in our laboratory by studying a cDNA sequence of the human cathepsin L gene (SEQ ID NO: 2). We selected a segment defined by nucleotide numbers 91-111, sent that sequence to a contract laboratory (Dharmacon, Lafayette, Colo.), which synthesized an siRNA molecule based on the aforementioned segment. The segment of the human cathepsin L cDNA we used was: […] (91-111) (SEQ ID NO: 2). On the day before transfection, 3×10^5 drug resistant osteosarcoma cells (Saos2-R) were seeded in 6-well plates and grown in 2.5 ml of DMEM supplemented with 10% FBS. After 24 hours in culture, 25 μl of 20 μM stock solution of siRNA duplexes were transfected into cells with GeneSilencer™ SiRNA Transfection Reagent Kit (Gene Therapy Systems, Inc., San Diego, Calif.). Briefly, adherent cells were transfected in 6 well plates. Cells were about 70% confluent. In one tube, 5 μl of GeneSilencer™ was mixed with 25 μl of serum free medium. In a second tube, 25 μl of siRNA diluent was mixed with […] of serum free medium and 20 μl of siRNA (100 nM). After incubation of tubes 1 and 2, at room temperature for 5 min, they were mixed together into tube 3 and incubated for an additional 5 min. The content of tube 3 was added to the cells in the 6 well plates and incubated for 2 days before the addition of the drug. After 48 hours of incubation, doxorubicin (10^−5 M) was added and maintained in culture for an additional 48 hours before analysis. The cells were counted and protein lysates were used to detect cathepsin L expression by Western blot as described above.

[5] = test system: HL-60 wild type; experiment: MTT cytotoxicity assay, HL-60 wild type cells; assay type: cell-based; settings: Homo sapiens, 96 hours, read-out: IC50 of doxorubicin alone (converted)
Description: (§2) Cytotoxic activity of doxorubicin and cysteine protease inhibitors were quantitatively determined by a calorimetric assay utilizing 3-(4,5-dimethyl-2-thiazolyl) 2,5-diphenyl tetrazolium bromide (MTT; Sigma-Aldrich, St. Louis, Mo.). Briefly, cells were seeded at 10^4 cells/well in 96-well plates and maintained in culture for 24 hours at 37° C. in DMEM supplemented with 10% FBS. Drugs were added to designated wells and cells were incubated for 96 hours, following which MTT (10 μL of 5 mg/ml solution) was added to each 100 μl well and incubated for 4 hours at 37° C. The cells were solubilized by incubation with 100 μl of HCl 0.5N in isopropanol for 15 hours at 37° C. The optical density of this solution was measured at 570 nm and the percentage of viable cells estimated by comparison with untreated control cells.
(§3) The effect of cathepsin L inhibitor was tested on drug sensitive and resistant (R) cell lines corresponding to various cancer types, including the human neuroblastoma cell line SKN-SH (ATCC Cat. No. HTB-11), the murine neuroblastoma cell line Neuro2A (ATCC Cat. No. CCL-131), the osteosarcoma cells Saos2 (ATCC Cat. No. HTB-85) and the leukemia cell line HL-60 (ATCC Cat. No. CCL240). The cells were treated with cathepsin L inhibitor with or without doxorubicin as described above. Cell viability was calculated after 96 hours of incubation with the drug combination. […]

[6] = test system: Saos2 doxorubicin resistant; experiment: MTT cytotoxicity assay, Saos2 doxorubicin resistant cells; assay type: cell-based; settings: Homo sapiens, SAOS-2, 96 hours, read-out: IC50 of doxorubicin alone (converted)
Description: as §2, §3

[7] = test system: SKN-SH wild type cells; experiment: MTT cytotoxicity assay, SKN-SH wild type cells; assay type: cell-based; settings: Homo sapiens, SK-N-SH, 96 h, read-out: IC50 of the cytotoxic agent alone
Description: (§4) Human neuroblastoma SKN-SH cells (ATCC Cat. No. HTB-11) were cultured in Dulbecco's Modified Eagles Medium (DMEM; Gibco, Grand Island, N.Y.) supplemented with 10% fetal bovine serum (FBS; Sigma-Aldrich, St. Louis, Mo.) at 37° C. in a 95% Air/5% CO2 atmosphere. Resistant cells to doxorubicin (SKN-SH/R) were selected by stepwise exposure to drug concentrations ranging from 10^−9 M through 10^−6 M over a time period of three months. The resulting cell line was subjected to treatment with the doxorubicin alone or in combination with: proteosome inhibitor (Lactacystin), cathepsin B inhibitor (L-3-trans-(Propylcarbamoyl)oxirane-2-carbonyl]-L-isoleucyl-L praline), cathespin L inhibitor (Z-Phe-Tyr(t-Bu)-diazomethylketone), cathespin K inhibitor (1,3-Bis(N-CBZ-Leu-NH)-2-propanonel,3 -Di(N-carbonbenzoyloxy-L-leucyl)amino acetone), or cathespin S inhibitor (Z-Phe-Leu-COCHO.H2O), (all available from Calbiochem-Novabiochem, San Diego) at 10 μM each to determine whether they affect cell response to doxorubicin.
(§5) Cytotoxic activity of doxorubicin and cysteine protease inhibitors were quantitatively determined by a calorimetric assay utilizing 3-(4,5-dimethyl-2-thiazolyl) 2,5-diphenyl tetrazolium bromide (MTT; Sigma-Aldrich, St. Louis, Mo.). […] The optical density of this solution was measured at 570 nm and the percentage of viable cells estimated by comparison with untreated control cells. […]

[8] = test system: Neuro2A wild type; experiment: MTT cytotoxicity assay, Neuro2A wild type cells; assay type: cell-based, murine; settings: Mus musculus, N2a, 96 hours, read-out: IC50 of doxorubicin alone (converted)
Description: as §2, §3

[9] = test system: HL-60 doxorubicin resistance cells; experiment: MTT cytotoxicity assay, HL-60 doxorubicin resistant cells; assay type: cell-based; settings: Homo sapiens, 96 hours, read-out: IC50 of doxorubicin alone (converted)
Description: as §2, §3

[10] = test system: Drug-sensitive cells Saos2; experiment: Prevention of development of doxorubicin resistance, viable cell count, Saos2; assay type: cell-based; settings: repeated four-day treatments with increasing doxorubicin
From the text: (§6) As discussed above, inhibition of cathepsin L enhanced drug response only in drug-resistant cells. Another aspect of the present invention was to determine whether treatment of drug-sensitive cancer cells with this drug combination prevents them from becoming drug resistant. […] After 4 days in culture, the surviving cells were subjected to the same treatment for an additional four days. The cells were then subjected to two subsequent treatments for four days with 2.5×10^−8 M doxorubicin with or without the cathepsin L inhibitor at 10 μM. The surviving cells were then treated with doxorubicin 5×10^−8 M doxorubicin with or without cathepsin L (10 μM) for four days. At the end of each incubation period, viable cells were counted.

[11] = test system: ovarian cancer (A2780/CR); experiment: cells; settings: Homo sapiens, A2780, 192 h, read-out: percentage of viable cells, single agent
Description: (§7) The following additional cell lines were tested: breast cancer (MCF-7/doxR) (MCF: ATCC Cat. No. HTB-22) and ovarian cancer (A2780/CR; European collection of cell culture cat# 931112519, Salisbury, UK). Cells were treated with doxorubicin (10^−5M) and/or a cathepsin L inhibitor (25 μM) for eight days. Viable cell number was counted and normalized to 100% of non-treated cells.

[12] = test system: Saos2 wild type; experiment: MTT cytotoxicity assay, Saos2 wild type cells; assay type: cell-based; settings: Homo sapiens, SAOS-2, 96 hours, read-out: IC50 of doxorubicin alone (converted)
Description: as §2, §3

[13] = test system: Doxorubicin resistant human neuroblastoma cells (SKN-SH/R); experiment: Tumor growth of SKN-SH/R cells injected into nude mice; assay type: in vivo; settings: nude mice, i.p. on day 11, 14, 17; doxorubicin alone 1.5 mg/Kg or iCL alone 30 mg/Kg
Description: Doxorubicin resistant human neuroblastoma cells (SKN-SH/R) cells grown into 75 cm^2 flasks were harvested by trypsinization and centrifuged to remove trypsin. The pellet was then reconstituted in culture medium at 10^7 cell/ml. On day one, 100 μl (10^6 cells) were injected to the right flank of nude mice (5 per group) and after the tumor became palpable at day 11, mice were assigned to four groups: 1) controls (treated with the vehicle DMSO), 2) Dox. 1.5 mg/kg (treated with doxorubicin alone 1.5 mg/Kg), 3) iCL 30 mg/Kg (treated with cathepsin L inhibitor alone at 30 mg/Kg), and 4) Dox 1.5 mg/Kg+iCL 30 mg/Kg (treated with the combination of doxorubicin 1.5 mg/Kg and cathepsin L inhibitor 30 mg/Kg). Intraperetoneal injections were given on day 11, day 14, and day 17.

[14] = test system: breast cancer (MCF-7/doxR); experiment: cells; settings: Homo sapiens, MCF7, 192 h, read-out: percentage of viable cells, single agent
Description: as §7

[15] = test system: SKN-SH/R cells; experiment: MTT cytotoxicity assay, doxorubicin-resistant neuroblastoma cells; assay type: cell-based; settings: Homo sapiens, SK-N-SH, 96 h, read-out: IC50 (concentration at which 50% of cells remained viable) of the cytotoxic agent alone, SKN-SH/R cells, agent alone (control cells), 96 hours, MTT
Description: as §4, §5

[16] = test system: Drug-sensitive cells SKN-SH; experiment: Prevention of development of doxorubicin resistance, viable cell count, SKN-SH; assay type: cell-based, human; settings: repeated four-day treatments with increasing doxorubicin
From the text: as §6

[17] = test system: Neuro2A doxorubicin resistant cells; experiment: MTT cytotoxicity assay, Neuro2A doxorubicin resistant cells; assay type: cell-based, murine; settings: Mus musculus, N2a, 96 hours, read-out: IC50 of doxorubicin alone (converted)
Description: as §2, §3

Compound | expression of p21/WAF1 (Western blot), combination with doxorubicin 10^−6M ([1]; cathepsin L inhibitor 10 μM + doxorubicin 10^−6M) | expression of p21/WAF1 (Western blot), combination with doxorubicin 10^−7M ([1]; cathepsin L inhibitor 10 μM + doxorubicin 10^−7M) | cathepsin L activity (arbitrary units) in presence of inhibitor [2] | caspase-3 activation (Western blot), combination with doxorubicin 10^−6M [3] | cell number, in combination with doxorubicin [4] | IC50 [5] | IC50 [6] | IC50 [7] | IC50 [8] | IC50 [9] | effect on percentage of viable cells over successive treatments, doxorubicin alone [10] | viability at 25 µM [11] | IC50 [12] | average tumor volume on day 27, single agent [13] | viability at 25 µM [14] | IC50 [15] | change in percentage of viable cells over successive treatments, doxorubicin alone [16] | IC50 [17]
CC(C)(C)Oc1ccc(C[C@H](NC(=O)[C@H](Cc2ccccc2)NC(=O)OCc2ccccc2)C(=O)C=[N+]=[N-])cc1 [cathepsin L inhibitor, Z-Phe-Tyr(t-Bu)-diazomethylketone] (Cbz-Phe-Tyr(tBu)-CHN2) | decreased expression of p21/WAF1 | enhanced expression of p21/WAF1 | 1e+5 AU | increased caspase-3 activation | 2.0e+5 AU |  |  |  |  |  |  |  |  |  |  |  |  | 
COc1cccc2c1C(=O)c1c(O)c3c(c(O)c1C2=O)C[C@@](O)(C(=O)CO)C[C@@H]3O[C@H]1C[C@H](N)[C@H](O)[C@H](C)O1 [doxorubicin] |  |  |  |  |  | ~56.2 nM | ~5620 nM | ~1.78 nM | ~31.6 nM | ~31600 nM | no affect | ~70% | ~100 nM | approximately 1600 mm^3 | ~50% | ~178 nM | no change | ~3160 nM
